Data on two molecules can be found in ChEMBL document CHEMBL4622979, “Non-rigid Diarylmethyl Analogs of Baloxavir as Cap-Dependent Endonuclease Inhibitors of Influenza Viruses” (J Med Chem, 2020).

The nature of data set [1]: Half life in CD1 mouse blood assessed as baloxavir acid level at 15 mg/kg, po administered as single dose measured up to 24 hrs by LC-MS/MS analysis. Format: ADME, organism-based. Conditions: in vivo.
Data set [2] is described as follows: Elimination rate constant in CD1 mouse lung assessed as baloxavir acid level at 15 mg/kg, po administered as single dose measured up to 24 hrs by LC-MS/MS analysis. Type of data set: ADME, organism-based. Conditions: in vivo.
A short description of data set [3]: AUClast in CD1 mouse liver assessed as baloxavir acid level at 15 mg/kg, po administered as single dose measured up to 24 hrs by LC-MS/MS analysis. Format: ADME, organism-based. Conditions: in vivo.
Data set [4] in a line: AUClast in CD1 mouse lung assessed as baloxavir acid level at 15 mg/kg, po administered as single dose by LC-MS/MS analysis. Conditions: in vivo. Format: ADME, organism-based.
The nature of data set [5]: Cmax in CD1 mouse brain assessed as baloxavir acid level at 15 mg/kg, po administered as single dose measured up to 24 hrs by LC-MS/MS analysis. Type of data set: ADME, organism-based. On the set-up: dose 15 mg/kg, route oral. Conditions: in vivo.
The nature of data set [6]: Half life in CD1 mouse kidney assessed as baloxavir acid level at 15 mg/kg, po administered as single dose measured up to 24 hrs by LC-MS/MS analysis. Format: ADME, organism-based. Conditions: in vivo.
A short description of data set [7]: Ratio of AUClast in CD1 mouse kidney to plasma assessed as baloxavir acid level at 15 mg/kg, po administered as single dose measured up to 24 hrs by LC-MS/MS analysis. Conditions: other tissue. Type of data set: ADME, organism-based.
A short description of data set [8]: Cmax in CD1 mouse plasma assessed as baloxavir acid level at 15 mg/kg, po administered as single dose measured up to 24 hrs by LC-MS/MS analysis. Type of data set: ADME, organism-based. On the set-up: dose 15 mg/kg, route oral. Conditions: in vivo.
Data set [9] in a line: Cmax in CD1 mouse lung assessed as baloxavir acid level at 15 mg/kg, po administered as single dose measured up to 24 hrs by LC-MS/MS analysis. Format: ADME, organism-based. Set-up: dose 15 mg/kg, route oral. Conditions: in vivo.
A short description of data set [10]: Ratio of Cmax in CD1 mouse lung to plasma assessed as baloxavir acid level at 15 mg/kg, po administered as single dose by LC-MS/MS analysis. Format: ADME, organism-based. Conditions: other tissue.
Data set [11] can be described thus: Acute toxicity in CD1 mouse assessed as effect on intestine at 2000 mg/kg, po measured after 2 weeks by macroscopic analysis. Format: organism-based. Conditions: in vivo, 336 h.
Data set [12] in a line: Ratio of AUClast in CD1 mouse lung to plasma assessed as (12aR)-12-(Diphenylmethyl)-7-hydroxy-3,4,12,12a-tetrahydro-1H-[1,4]oxazino[3,4-c]pyrido[2,1-f ][1,2,4]triazine-6,8-dione level at 15 mg/kg, po administered as single dose measured up to 24 hrs by LC-MS/MS analysis. Conditions: other tissue. Format: ADME, organism-based.
Data set [13] can be described thus: Cytotoxicity against human HepG2 cells assessed as reduction in cell viability measured after 24 hrs in presence of galactose by MTT assay. Format: cell-based. Background: Tetrazolium dyes change colour on reduction, which living cells bring about.
The nature of data set [14]: Half life in CD1 mouse trachea assessed as (12aR)-12-(Diphenylmethyl)-7-hydroxy-3,4,12,12a-tetrahydro-1H-[1,4]oxazino[3,4-c]pyrido[2,1-f ][1,2,4]triazine-6,8-dione level at 15 mg/kg, po administered as single dose measured up to 24 hrs by LC-MS/MS analysis. Conditions: in vivo. Format: ADME, organism-based.
Data set [15] is described as follows: Tmax in CD1 mouse blood assessed as (12aR)-12-(Diphenylmethyl)-7-hydroxy-3,4,12,12a-tetrahydro-1H-[1,4]oxazino[3,4-c]pyrido[2,1-f ][1,2,4]triazine-6,8-dione level at 15 mg/kg, po administered as single dose measured up to 24 hrs by LC-MS/MS analysis. Conditions: in vivo. Type of data set: ADME, organism-based.
A short description of data set [16]: MRTlast in CD1 mouse lung assessed as (12aR)-12-(Diphenylmethyl)-7-hydroxy-3,4,12,12a-tetrahydro-1H-[1,4]oxazino[3,4-c]pyrido[2,1-f ][1,2,4]triazine-6,8-dione level at 15 mg/kg, po administered as single dose measured up to 24 hrs by LC-MS/MS analysis. Conditions: in vivo. Type of data set: ADME, organism-based.
The nature of data set [17]: MRTlast in CD1 mouse muscle assessed as (12aR)-12-(Diphenylmethyl)-7-hydroxy-3,4,12,12a-tetrahydro-1H-[1,4]oxazino[3,4-c]pyrido[2,1-f ][1,2,4]triazine-6,8-dione level at 15 mg/kg, po administered as single dose measured up to 24 hrs by LC-MS/MS analysis. Type of data set: ADME, organism-based, Muscle tissue. Conditions: in vivo.
Data set [18] can be described thus: Oral bioavailability in CD1 mouse assessed as (12aR)-12-(Diphenylmethyl)-7-hydroxy-3,4,12,12a-tetrahydro-1H-[1,4]oxazino[3,4-c]pyrido[2,1-f ][1,2,4]triazine-6,8-dione level at 15 mg/kg administered as single dose by LC-MS/MS analysis. Type of data set: ADME, organism-based. Conditions: in vivo.
Data set [19] in a line: Stability in human plasma assessed as parent compound remaining at 1 uM measured after 4 hrs by LC-MS/MS analysis. Format: ADME, cell-free. Conditions: read-out: Stability.
The nature of data set [20]: Tmax in CD1 mouse lung assessed as (12aR)-12-(Diphenylmethyl)-7-hydroxy-3,4,12,12a-tetrahydro-1H-[1,4]oxazino[3,4-c]pyrido[2,1-f ][1,2,4]triazine-6,8-dione level at 15 mg/kg, po administered as single dose measured up to 24 hrs by LC-MS/MS analysis. Conditions: in vivo. Type of data set: ADME, organism-based.
Data set [21] in a line: Half life in CD1 mouse blood assessed as (12aR)-12-(Diphenylmethyl)-7-hydroxy-3,4,12,12a-tetrahydro-1H-[1,4]oxazino[3,4-c]pyrido[2,1-f ][1,2,4]triazine-6,8-dione level at 15 mg/kg, po administered as single dose measured up to 24 hrs by LC-MS/MS analysis. Type of data set: ADME, organism-based. Conditions: in vivo.
Data set [22] in a line: Acute toxicity in CD1 mouse assessed as effect on kidney at 2000 mg/kg, po measured after 2 weeks by macroscopic analysis. Type of data set: organism-based. Conditions: in vivo, 336 h.
Data set [23] in a line: Tmax in CD1 mouse muscle assessed as (12aR)-12-(Diphenylmethyl)-7-hydroxy-3,4,12,12a-tetrahydro-1H-[1,4]oxazino[3,4-c]pyrido[2,1-f ][1,2,4]triazine-6,8-dione level at 15 mg/kg, po administered as single dose measured up to 24 hrs by LC-MS/MS analysis. Type of data set: ADME, organism-based, Muscle tissue. Conditions: in vivo.
A short description of data set [24]: Elimination rate constant in CD1 mouse liver assessed as (12aR)-12-(Diphenylmethyl)-7-hydroxy-3,4,12,12a-tetrahydro-1H-[1,4]oxazino[3,4-c]pyrido[2,1-f ][1,2,4]triazine-6,8-dione level at 15 mg/kg, po administered as single dose measured up to 24 hrs by LC-MS/MS analysis. Format: ADME, organism-based. Conditions: in vivo.

In the case of `COC(=O)OCOc1c2n(ccc1=O)N([C@@H]1c3ccccc3SCc3c1ccc(F)c3F)[C@@H]1COCCN1C2=O` [BALOXAVIR MARBOXIL], the t1/2 in data set [1] is 3.29 h; in data set [6] it was 3.26 h. The Kel in [2] was determined as 0.2 h⁻¹. The results for the AUClast in data set [3] and in data set [4] were 85226 ng·h/g and 11909 ng·h/g, respectively. Also, the Cmax (as a rule, the peak of the concentration-time curve) stood at 21.9 ng/g in data set [5], 88.5 ng/mL in data set [8] and 1188 ng/g in [9]. Further, the “Ratio AUC” value in data set [7] turned out to be 46.8. Moreover, in data set [10], the Ratio is listed as 10.8.
As to `COC(=O)OCOc1c2n(ccc1=O)N(C(c1ccccc1)c1ccccc1)[C@@H]1COCCN1C2=O`, the Activity result in [11] and in data set [22] was “Non-Toxic” each time. Further, the “Ratio AUC” value in [12] amounted to 2.53. The CC50 – broadly, the concentration that lowers cell viability or growth by half – at 24 h in data set [13] amounted to 57 µM. In addition, the t1/2 worked out at 4.91 h in data set [14] and 1.74 h in [21]. The Tmax in data set [15], in data set [20] and in data set [23] was 0.5 h each time. For the same molecule, the MRTlast is 1.7 h in data set [16] and 1.86 h in data set [17]. The F in [18] is recorded as 62.1%. For the same molecule, the remaining at 4 h, 1 µM in data set [19] was determined as 8.1%. The Kel in data set [24] was found to be 0.3 h⁻¹.
